Patent publication US12661308B2, “Antimicrobial AZO compounds and uses thereof” (The Regents Of The University Of Colorado, A Body Corporate, priority 2019, dated 2026)

Key:
[1] = test system: S. mutans (ATCC 25175) biofilm; assay: Detachment study of S. mutans biofilm on monomer-coated polymeric substrates (Example 1); format: cell-based, Streptococcus mutans; details: for detachment of S. mutans biofilm (CFU removed): 50 mg/mL coating solution, light/wash treatment
Description: The polymeric substrates were prepared by mixing 54 wt % methyl methacrylate (MMA), 30 wt % polymethylmethacrylate (PMMA, MW ˜35 k), and 16 wt % tetraethylene glycol dimethacrylate (TEGDMA) at 70° C. for 2 hr. After mixing, 1 wt. % azobisisobutyronitrile (AIBN) was added to the formulation as an initiator and mixed.
The mixed formulation was added to circular molds (diameter=6.5 mm) cut from a strip of rubber (thickness=0.9 mm) and pressed between two glass microscope slides. The mold was clamped together and thermally cured at 80° C. for 1.5 hr.
The polymeric substrates were coated as follows. Coating solutions were prepared having the following monomer concentrations (see FIG. 3 for structures of the monomers): 0.5 mg/mL and 50 mg/mL solutions of a phenolic acrylated azobenzene monomer (OH-AAZO), 50 mg/mL acrylated azobenzene monomer (AAZO), 50 mg/mL 4-hydroxyl benzylacrylate (HBA), 50 mg/mL 2-hydroxylethyl methacrylate (HEMA).
The coating solutions included the monomer in N,N′-dimethylformamide (DMF) along with 0.5 mg/mL of AIBN and 0.1 mg/mL of Rhodamine B as an indicator dye. Once mixed, 3 μL of each coating solution was pipetted onto one side of the polymeric substrate and spun at 1000 RPM for 1 min followed by spinning at 6000 RPM for 3 s. The coating was cured under a nail lamp (Melody Susie UV Gel Nail Polish Dryer, Model DR-301C) for at least 15 min before repeating the coating procedure on the other side.
The controlled growth of biofilms varied depending on the bacteria strain. In the case of S. mutans, a BHI agar plate was streaked with S. mutans (ATCC 25175) and allowed to incubate at 37° C. in 5% CO2 for 60 hr to isolate a single bacterial colony. The colony was inoculated in 5 mL of BHI and allowed to incubate statically in the 5% CO2 incubator for 24 hr. The stock solution was diluted 1:50 in a 96-well plate containing the substrates of interest and allowed to incubate in the 5% CO2 incubator for an additional 24 hr.
The detachment study quantified the biofilm grown on each substrate via a series of washes in 1×PBS. The substrate was irradiated using a dental lamp (FlashMax P3 Ortho™, 1900 mW/cm2, wavelength=450-470 nm) on the underside of the vial for a total of ten 3 s irradiations per side. Following the series of washes, the substrate was sonicated for 10 min to remove the residual biofilm on the substrate. The wash solutions were serial diluted, plated, and grown at 37° C. and 5% CO2 to obtain the CFU count.
Images collected from a digital microscope (Zeiss Axioplan II microscope, 630×, step size 0.1 μm) after the substrate and bacteria were treated with BACLIGHT Live/Dead stain are included in FIG. 4.

S. mutans biofilm = S. mutans biofilm growth on coated pit and fissure dental sealants; format: cell-based, Streptococcus mutans; details: coating on pit and fissure sealants
From the text: In some implementations, the azobenzene polymers can be used as an antimicrobial coating on pit and fissure dental sealants. […] Azobenzene coatings can be incorporated into pit and fissure sealants as an anti-bacterial coating to prevent tooth decay.

Row | Compound | detachment of S. mutans biofilm (CFU removed) [1] | S. mutans biofilm growth (S. mutans biofilm) | S. mutans biofilm on substrate, Live/Dead stain microscopy ([1]; after wash/light treatment)
1 | C=CC(=O)OCc1ccc(O)cc1 [HBA, 4-hydroxybenzyl acrylate] | minimal detachment |  | 
2 | C=C(C)C(=O)OCCO [HEMA, 2-hydroxylethyl methacrylate] | minimal detachment |  | 
3 | Acrylated azobenzene [AAZO] | minimal detachment | significantly reduced | still contained a robust S. mutans biofilm
